The record followed here is publication PMC6691761, “Potential multifunctional agents with anti-hepatoma and anti-inflammation properties by inhibiting NF-кB activation” (Journal of Enzyme Inhibition and Medicinal Chemistry, 2019).

What all share (assay type): cell-based
Assay [1] concerns human normal hepatic cell line (LO2). The assay can be described thus: Toxicity to normal cells, MTT assay, LO2. To be noted: 24 h. An excerpt:
(§1) Compounds 83–102 were screened against human neoplastic cell lines, such as human breast cancer cells (MCF-7), human colon cancer cells (HCT116), human lung carcinoma cells (A549), human gastric adenocarcinoma cells (SGC7901), human liver hepatocellular carcinoma cell line (HepG2), human cervical carcinoma cells (HeLa), human acute mononuclear granulocyte leukaemia (THP-1), and human normal hepatic cell line (LO2) using modified MTT assay. All the cells were obtained from the American Type Culture Collection (ATCC, Manassas, VA). The cells were cultured in DMEM or 1640. Positive controls (Doxorubicin (DOX) and Curcumin) and BAPs were initially dissolved in dimethyl sulphoxide (DMSO). Experimental concentration of DMSO was always 0.1% (v/v). The concentrations of BAPs and positive controls were 50, 20, 10, 5, 2.5, 1, 0.5, 0.1, 0.05, and 0.01 μg/mL.
(§2) The cells (1 × 10^4 cells/well) were seeded in a 96-well plate and incubated for 24 h. Cells treated with serial concentrations of drugs were incubated for another 24 h. After the media removed, 20 μL of MTT (5 mg/mL) solution was added and incubated for 4 h at 37 °C. The MTT solution was removed and then 150 μL of DMSO was added. The optical density was measured with a multi-well plate reader (TECAN, Mӓnnedorf, Switzerland) at 570 nm. The results are expressed as a decrease in the cell viability (%) in comparison to untreated controls. The concentration of each compound was examined in triplicate, and the IC50 values are expressed in Table 1.

Assay [2] relates to human liver hepatocellular carcinoma cell line (HepG2). The assay can be described thus: Cytotoxicity, MTT assay, HepG2. To be noted: for IC50: MTT, 24 h; for HepG2 SI (selectivity index): quotient of IC50 towards LO2 cells.
Excerpt: as §1, §2

The subject of assay [3] is human cervical carcinoma cells (HeLa). The assay can be described thus: Cytotoxicity, MTT assay, HeLa. Particulars: for IC50: MTT, 24 h; for HeLa SI (selectivity index): quotient of IC50 towards LO2 cells.
Excerpt: as §1, §2
In general terms: Formazan colour is commonly taken as a measure of viable cells.

The subject of assay [4] is human lung carcinoma cells (A549). The assay is described as follows: Cytotoxicity, MTT assay, A549. Particulars: for IC50: MTT, 24 h; for A549 SI (selectivity index): quotient of IC50 towards LO2 cells.
Excerpt: as §1, §2

Assay [5] relates to human gastric adenocarcinoma cells (SGC7901). The assay is described as follows: Cytotoxicity, MTT assay, SGC7901. To be noted: for IC50: MTT, 24 h; for SGC7901 SI (selectivity index): quotient of IC50 towards LO2 cells.
Excerpt: as §1, §2

Assay [6] relates to human breast cancer cells (MCF-7). The assay can be described thus: Cytotoxicity, MTT assay, MCF-7. To be noted: for IC50: MTT, 24 h; for MCF-7 SI (selectivity index): quotient of IC50 towards LO2 cells.
Excerpt: as §1, §2

Assay [7] relates to human acute mononuclear granulocyte leukaemia (THP-1). The assay is described as follows: Cytotoxicity, MTT assay, THP-1. Particulars: for IC50: MTT, 24 h; for THP-1 SI (selectivity index): quotient of IC50 towards LO2 cells.
Excerpt: as §1, §2

Assay [8] has as its system human colon cancer cells (HCT116). The assay can be described thus: Cytotoxicity, MTT assay, HCT116. Particulars: for IC50: MTT, 24 h; for HCT116 SI (selectivity index): quotient of IC50 towards LO2 cells.
Excerpt: as §1, §2

Take `COc1ccc(C=Nc2cccc(C=C3CN(C)CC(=Cc4ccccc4F)C3=O)c2)c(O)c1` [Compound 101]: the IC50 – broadly, the concentration that inhibits the measured activity by half – in assay [1] was found to be 13.9 ± 0.3 µM; in assay [2] it was 4.8 ± 0.1 µM; in assay [3], 8.9 ± 0.2 µM; in assay [4], 3.5 ± 0.2 µM; in assay [5], 10.8 ± 0.1 µM; in assay [6], 4.7 ± 0.2 µM. The IC50 in assay [7] came to 3.5 ± 0.2 µM; in assay [8], 4.9 ± 0.1 µM. Moreover, in assay [2], the “HepG2 SI (selectivity index)” value was determined as 2.9. The “HeLa SI (selectivity index)” value in assay [3] is listed as 1.6. Also, the “A549 SI (selectivity index)” value in assay [4] is 4.0. Further, in assay [5], the “SGC7901 SI (selectivity index)” value came out at 1.3. In addition, the “MCF-7 SI (selectivity index)” value in assay [6] is reported as 3.0. Besides, the “THP-1 SI (selectivity index)” value in assay [7] was found to be 4.0. The “HCT116 SI (selectivity index)” value in assay [8] turned out to be 2.8.

In turn, `CN1C/C(=C\c2cccc([N+](=O)[O-])c2)C(=O)/C(=C/c2ccc(F)cc2F)C1` [Compound 84] had an IC50 in assay [1] of 19.3 ± 0.3 µM. In assay [2], half-maximal inhibition (IC50) was put at 8.2 ± 0.3 µM and the “HepG2 SI (selectivity index)” value worked out at 2.4. For the same compound, in assay [3], the IC50 came out at 10.2 ± 0.2 µM and the “HeLa SI (selectivity index)” value was 1.9. In addition, in assay [4], the IC50 was determined as 6.2 ± 0.3 µM and the “A549 SI (selectivity index)” value is 3.1. Besides, in assay [5], the IC50 was 7.6 ± 0.8 µM and the “SGC7901 SI (selectivity index)” value amounted to 2.5. In assay [6], the IC50 came to 8.5 ± 0.2 µM and the “MCF-7 SI (selectivity index)” value stood at 2.3. Also, in assay [7], it took 11.8 ± 0.2 µM to reach half-maximal inhibition (IC50) and the “THP-1 SI (selectivity index)” value came out at 1.6. For the same compound, in assay [8], 9.5 ± 0.1 µM corresponded to half-maximal inhibition (IC50) and the “HCT116 SI (selectivity index)” value was determined as 2.0.

On to `CN1C/C(=C\c2cc(F)cc(F)c2)C(=O)/C(=C/c2cccc([N+](=O)[O-])c2)C1` [Compound 85], for which the IC50 is 20.3 ± 0.1 µM in assay [1]; 14.3 ± 0.1 µM in assay [2]; 14.2 ± 0.6 µM in assay [3]; 9.7 ± 0.2 µM in assay [4]; 24.5 ± 0.8 µM in assay [5]; 18.5 ± 0.4 µM in assay [6]. Further, the values for the IC50 in assay [7] and in assay [8] were 5.4 ± 0.3 µM and 13.2 ± 0.5 µM, respectively. Further, the “HepG2 SI (selectivity index)” value in assay [2] was found to be 1.4. In addition, the “HeLa SI (selectivity index)” value in assay [3] worked out at 1.4. For the same compound, the “A549 SI (selectivity index)” value in assay [4] was 2.1. Further, in assay [5], the “SGC7901 SI (selectivity index)” value turned out to be 0.8. The “MCF-7 SI (selectivity index)” value in assay [6] is 1.1. In addition, in assay [7], the “THP-1 SI (selectivity index)” value stood at 3.8. Also, the “HCT116 SI (selectivity index)” value in assay [8] was found to be 1.5.

In the case of `CN1CC(=Cc2cccc(N=Cc3ccc(Cl)c(Cl)c3)c2)C(=O)C(=Cc2ccccc2F)C1` [Compound 95], in assay [1], the IC50 stood at 11 ± 0.4 µM. Also, in assay [2], inhibition was half-maximal at 2.5 ± 0.1 µM (IC50) and the “HepG2 SI (selectivity index)” value is 4.4. Moreover, in assay [3], inhibition was half-maximal at 4.3 ± 0.1 µM (IC50) and the “HeLa SI (selectivity index)” value is given as 2.6. For the same compound, in assay [4], the IC50 came to 3.1 ± 0.2 µM and the “A549 SI (selectivity index)” value was determined as 3.5. For the same compound, in assay [5], the IC50 worked out at 3.3 ± 0.5 µM and the “SGC7901 SI (selectivity index)” value came to 3.3. Besides, in assay [6], the IC50 was found to be 5.4 ± 0.2 µM and the “MCF-7 SI (selectivity index)” value worked out at 2.0. Moreover, in assay [7], the IC50 is 3.8 ± 0.1 µM and the “THP-1 SI (selectivity index)” value is given as 2.9. In assay [8], the IC50 came out at 6.3 ± 0.2 µM and the “HCT116 SI (selectivity index)” value came to 1.7.

As for `COc1ccccc1/C=C1\CN(C)C/C(=C\c2cc(OC)c(OC)c(OC)c2)C1=O` [Compound 89], the IC50 in assay [1] came out at 13.6 ± 0.1 µM. Also, in assay [2], half-maximal inhibition (IC50) was put at 4.3 ± 0.1 µM and the “HepG2 SI (selectivity index)” value is on record as 3.2. Moreover, in assay [3], it took 5.3 ± 0.4 µM to reach half-maximal inhibition (IC50) and the “HeLa SI (selectivity index)” value came out at 2.6. Moreover, in assay [4], the IC50 is 4.9 ± 0.1 µM and the “A549 SI (selectivity index)” value came out at 2.8. For the same compound, in assay [5], the IC50 stood at 3.3 ± 0.3 µM and the “SGC7901 SI (selectivity index)” value is listed as 4.1. Moreover, in assay [6], the half-inhibitory concentration (IC50) amounted to 9.7 ± 0.4 µM and the “MCF-7 SI (selectivity index)” value was 1.4. Further, in assay [7], inhibition was half-maximal at 7.9 ± 0.3 µM (IC50) and the “THP-1 SI (selectivity index)” value turned out to be 1.7. Further, in assay [8], half-maximal inhibition (IC50) required 5.6 ± 0.1 µM and the “HCT116 SI (selectivity index)” value is given as 2.4.
